Key:
[1] = test system: A394V mice; assay: Plasma Hcy in NKH knock-in mouse model (GLDC mutation A394V) challenged with glycine
Experimental: In another exemplary experiment, NKH as represented in the experimental mouse model, A394V mice was tested for levels of Hcy in the NKH mouse model when exposed to various agents.
In this experiment, a knock-in mouse model with the clinically observed human GLDC mutation A394V engineered into the mouse gene was used. This mutation retains a small amount of residual enzyme that is sufficient to create a viable model.
Data shown has an N=5 animals per group and is representative of 2 independent experiments.

[2] = test system: Cbs null mouse; assay: Hcy lowering, survival and liver injury in Cbs null mouse model; type: in vivo; conditions: Cbs null mice with severe liver damage
Description: In one exemplary method, an acceptable mouse mode of HCU is used to study various effects of exemplary compositions disclosed herein on aberrant Hcy levels. To date, the majority of research on HCU has been performed using a CBS knockout mouse model. These Cbs (−/−) animals suffer from pronounced liver injury and typically die within 2-3 weeks of birth.
In an alternative experiment, agents were used to verify involvement of BHMT in the homocystinuria treatment process. In these exemplary methods, a Cbs null mouse was used where severe liver damage to the mouse model interferes with standard HCU treatments to reduce Hcy.

[3] = test system: HO HCU mice; assay: Plasma Hcy, cysteine and metabolite levels in HO HCU mice treated via drinking water; type: in vivo, mouse; conditions: for further lowering of Hcy due to betaine in the presence of the amino acid: about 3.0% w/v amino acid combined with about 3.0% w/v betaine in drinking water, one week; for plasma Hcy / plasma cysteine levels: HO mice, about 3.0% (w/v) in drinking water ad libitum for one week, normal methionine diet
Experimental: It is noted that WT mice (n=6) were untreated controls. HO HCU mice (N=8, 4 of each sex in each group) were either untreated or treated with about 3.0% (w/v) glycine w/v or about 3.0% (w/v) serine given in drinking water supplied ad libitum for one week.
In accordance with these methods, HO HCU mice (N=8, 4 of each sex in each group) were treated with either about 3.0% glycine w/v or about 3.0% w/v serine given in drinking water supplied ad libitum for one week in the presence and absence of about 3.0% w/v betaine. Plasma samples were taken from the mice at various times and Hcy levels were determined.
Plasma Hcy levels were determined from HO HCU mice (n=8 per group) in the presence and absence of either about 5.0% w/v sodium formate alone or in combination with about 3.0% betaine given in drinking water given ad libitum. […]

[4] = test system: DMGDH; assay: Western blot analysis of hepatic DMGDH protein levels in HO HCU mice; type: in vivo, mouse
Experimental: In other exemplary experiments, it is noted that methotrexate (MTX) treatment represses hepatic DMGDH protein levels even further in experimental HO HCU mice which supports the hypothesis that expression of this enzyme is sensitive to THF levels. In accordance with these methods, Western blot analysis of hepatic DMGDH protein levels in HO HCU mice in the presence and absence of methotrexate levels were assessed.
As illustrated herein, FIGS. 10A-10B represents a Western blot comparing the level of DMGDH and GAPDH (control) for untreated (HO) and treated (HO+MTX, methotrexate) mice (HO) using the HCU mouse model (10A); and further illustrated in a histogram plot (10B), level of intensity of DMDGH for untreated (HO) and treated (HO+MTX, methotrexate) mice (HO) using the HCU mouse model. This figure represents an N=9 per group and this figure is a representative of three independent experiments. P<0.05.
In another exemplary method, experiments were performed to measure levels of a critical enzyme in treated and untreated mouse models (HO).
As found in FIGS. 15A-15B, a Western blot comparing the level of DMGDH and GAPDH (control) for untreated (HO), treated (e.g. formate agent) and treated with standard treatment combinations (e.g. formate and trimethylglycine (e.g. betaine)) using the HCU mouse model (15A); and further illustrating in a histogram plot (15B), level of intensity of DMDGH for untreated (HO), treated (e.g. formate agent) and treated with standard treatment combinations (e.g. formate and trimethylglycine (e.g. betaine)) using the HCU mouse model in certain embodiments disclosed herein. Western blotting analysis of hepatic DMGDH protein levels in HO HCU mice in the presence and absence of either about 5.0% sodium formate alone or in combination with about 3.0% betaine given ad libitum in drinking water for about one week. N=9 per group. This figure is representative of three independent experiments.

[5] = test system: HO HCU mice; assay: Long-term betaine treatment of HO HCU mice without methionine-restriction; type: in vivo, mouse
[6] = test system: DHFR; assay: Western blotting analysis of hepatic DHFR protein levels in HO HCU mice; type: in vivo, mouse; conditions: betaine treated, not restored to control levels
Experimental: In other exemplary experiments, levels of DHFR were assessed using the HO mouse model in untreated and betaine treated mice. […] In addition, intensity levels of DHFR were measured and further illustrated in a histogram plot. As illustrated, level of intensity of DHFR for wild type (WT), treated (HO+betaine) and untreated mice (HO) using the HCU mouse model was examined. It is noted that the level of DHFR in betaine treated mice was not restored to control levels and only about a 5-10% improvement was observed (4B). (See FIGS. 4A-4B). As noted herein, Western blotting analysis of hepatic DHFR protein levels in WT and HO HCU mice. N=9 per group.

[7] = test system: mouse model of MTR deficient homocystinuria; assay: Betaine supplementation in mouse model of MTR deficient homocystinuria; type: in vivo
Description: In the following exemplary experiments, it was observed that betaine supplementation was limited as observed in a mouse model of MTR deficient homocystinuria. As noted in FIG. 1, Homocystinuria can occur due to defects in the Hcy remethylation enzymes MTR or MTHFR. It was observed that supplementation of betaine in certain experiments with a mouse model of MTR deficient homocystinuria lead to reduction of tHcy of approximately 25% having little effect on the condition. This modest decrease in betaine mediated treatment of MTR deficient homocystinuria has also been observed in human patients with this form of homocystinuria.

[8] = test system: BHMT; assay: BHMT protein level in liver during long-term betaine treatment; type: in vivo
Description: By this observation, it raised the possibility that the BHMT protein is impaired in its function. […] In this context, further induction of BHMT expression observed in a long-term betaine treatment group could constitute a not entirely successful compensatory mechanism designed to mitigate the effects of diminished BHMT activity.
In other embodiments disclosed herein, it was observed that BHMT is unusual in that it constitutes approximately 2% of total protein in the liver. During long-term betaine treatment this concentration rises to up to four to five fold (about 8-10%) of total hepatic protein which is an enormous amount of protein that would require zinc for its function. The increased requirement for zinc cannot be supplied because zinc cannot be stored in mammals and must be supplemented by diet or other source. Unfortunately, dietary sources of zinc are typically very high in protein and therefore precluded by the low methionine diet required of HCU patients. Therefore, long term betaine treatment in HCU could induce a significant zinc deficiency in a subject, impairing BHMT protein function and concomitantly reducing the betaine response.
BHMT is unusual in that it constitutes approximately 2% of total protein in the liver. […]

[9] = test system: Cbs null mouse; conditions: betaine treatment; cited from earlier work
[10] = test system: hepatic 5-methyl-THF; assay: Hepatic metabolomic analysis of 5-MeTHF in HO mice; type: in vivo, mouse; conditions: betaine 3% w/v in drinking water ad libitum
Description: As illustrated in one example, see FIG. 2, HCU (HO) induces a significant accumulation of hepatic 5-methyl-THF which by sequestering one carbon units has the potential to decrease the available pool of THF available to the betaine pathway for lowering Hcy. FIG. 2 illustrates an example of hepatic metabolomic analysis of HO and WT controls compared to an HO mouse treated with betaine. Comparative hepatic metabolomic analysis of HO mice and WT controls illustrate about a 10-fold accumulation in the MTHFR product 5-MeTHF. Betaine treatment alone reduced 5-MeTHF by about 15-25%. Data illustrated in FIG. 2 is derived from the livers of 8 (4 male, 4 female) individual HO or WT or HO Betaine mice per group. Betaine was given at 3% w/v in drinking water given ad libitum. P<0.0001 vs WT.

[11] = betaine treatment of the HO model

## O=C[O-].[Na+] [sodium formate]
[1]; A394V NKH mice, concomitant formate about 5.0% w/v in drinking water with about 5.0% w/v glycine
  glycine induced increase in Hcy: significantly reduced
[2]
  lowering of Hcy in the Cbs null mouse model: unable to lower Hcy
[3]; HO HCU mice, about 5.0% w/v sodium formate alone in drinking water, normal methionine/protein diet
  plasma Hcy levels: significantly lowered
[3]; HO HCU mice, about 5.0% w/v sodium formate with about 3.0% betaine in drinking water, normal protein diet
  Hcy levels, formate combined with the standard treatment (betaine): near normal levels
[4]; about 5.0% sodium formate alone in drinking water, about one week
  hepatic DMGDH expression levels: restore normal expression levels
[4]; about 5.0% sodium formate with about 3.0% betaine in drinking water, about one week
  response level for restoring DMGDH, formate agent combined with betaine: surprisingly synergistic

## NCC(=O)O [glycine]
[1]; mouse, in vivo
  plasma Hcy on glycine challenge: massive increase
[2]
  lowering of Hcy in the Cbs null mouse model: unable to lower Hcy
[3]; HO HCU mice
  further lowering of Hcy due to betaine in the presence of the amino acid: reduced and/or completely prevented
[3]
  plasma Hcy: significantly lowered
  plasma cysteine levels: increased

## C[N+](C)(C)CC(=O)O [betaine, N,N,N-trimethylglycine]
[5]; long-term betaine treatment, no methionine-restriction
  ability of betaine treatment to lower homocysteine: diminished significantly over time
[5]; prolonged betaine treatment
  coagulation phenotype: reversion to a hypercoagulative phenotype
  plasma levels of TNF-α and IL-Ip: significant increase
[6]
  improvement of hepatic DHFR level: 5-10%
[7]
  reduction of tHcy: approximately 25%
[8]
  levels of BHMT protein: significantly higher levels
[8]; approximately 2% normally
  BHMT as share of total hepatic protein: 8-10%
[3]; HO mouse model, betaine alone, as previously observed
  reduction of Hcy levels by standard treatment alone: 15-25%
[3]; [11]
  AdoHcy levels: fivefold decrease
  decrease in plasma AdoMet: 40%
  plasma DMG: increase
  plasma MG: increase
  plasma cysteine: increase
  plasma methionine: increase
[9]
  fertility of female Cbs (-/-) mice: restored fertility
  lowering of Hcy in Cbs (-/-) mice: without significantly lowering Hcy
  severe liver injury, steatosis, and fibrosis in surviving Cbs (-/-) mice: not significantly improved
  survival of Cbs (-/-) mice: improved survival
[10]
  reduction of hepatic 5-MeTHF: 15-25%

## N[C@@H](CO)C(=O)O [serine]
[2]
  lowering of Hcy in the Cbs null mouse model: unable to lower Hcy
[3]; HO HCU mice
  further lowering of Hcy due to betaine in the presence of the amino acid: reduced and/or completely prevented
[3]
  plasma Hcy: significantly lowered
  plasma cysteine levels: increased

## N[C@@H](Cc1c[nH]cn1)C(=O)O [histidine]
[3]; HO HCU mice
  further lowering of Hcy due to betaine in the presence of the amino acid: also observed

## O=S(=O)([O-])[O-].[Zn+2] [Zinc sulfate]
[3]; 8 HO HCU mice, 0.05% w/v Zinc sulfate in drinking water ad libitum for one week
  average decrease in plasma homocysteine: 25%
[3]; HO HCU mice, zinc supplementation with betaine, data not shown
  decrease in betaine efficacy during long term betaine treatment, zinc combined with betaine: prevented

## N[C@@H](Cc1c[nH]c2ccccc12)C(=O)O [tryptophan]
[3]; HO HCU mice
  further lowering of Hcy due to betaine in the presence of the amino acid: also observed

## CNCC(=O)O [sarcosine, sarcosine (methylglycine)]
[3]; HO HCU mice
  further lowering of Hcy due to betaine in the presence of the amino acid: also observed

## CN(Cc1cnc2nc(N)nc(N)c2n1)c1ccc(C(=O)N[C@@H](CCC(=O)O)C(=O)O)cc1 [methotrexate]
[4]; methotrexate treatment
  hepatic DMGDH protein levels: represses

Source: patent US12465579B2, “Compositions and methods for treating homocystinuria and other conditions” (THE REGENTS OF THE UNIVERSITY OF COLORADO, A BODY CORPORATE, priority 2019, dated 2025)
